Assay [1] concerns NCIH460, HCT116 and U251 cells. The experiment in a line: Anti-cancer screen, mean GI50 over cell lines. The class given is cell-based. The following applies: mean over cell lines; read-out: Cell growth inhibition Mean GI50. In outline: (§1)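 A570 read-out after a 3 h MTT step and DMSO solubilisation; a separate plate measured at drug addition served as T0. Treatment lasted 48 h at five concentrations (0.01–100 μM) after 24 h attachment in DMEM/10% FBS; SAHA as standard.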

In assay [2] the test system is NCIH460 (lung) cells. Kind of assay: Anti-cancer screen (MTT), NCIH460. The class given is cell-based. The following applies: Homo sapiens, NCI-H460, NCIH460, 48 hours, MTT; for GI50: read-out: Cell growth inhibition NCIH460 (Lung) GI50; for LC50: read-out: Cell growth inhibition NCIH460 (Lung) LC50; for IC (TGI): read-out: Cell growth inhibition NCIH460 (Lung) TGI. The procedure, abridged:
as §1

The test system of assay [3] is U251 (glioma) cells. Kind of assay: Anti-cancer screen (MTT), U251. Format: cell-based. The following applies: Homo sapiens, U-251, U251, 48 hours, MTT; for GI50: read-out: Cell growth inhibition U251 (Glioma) GI50; for LC50 (concentration giving 50% net cell kill relative to the time-zero cell count): read-out: Cell growth inhibition U251 (Glioma) LC50; for IC (TGI): read-out: Cell growth inhibition U251 (Glioma) TGI. The procedure, abridged: as §1

The test system of assay [4] is acetylated Tubulin. Kind of assay: Tubulin acetylation, sandwich ELISA in HCT116 lysate. The class given is cell-based. As to conditions: HCT116, 4 hours. As to the method: (§2) Acetylated histone (H3), acetylated Tubulin and p21 levels were detected in cell lysate by sandwich ELISA method (Cell Signaling Technology, USA, Cat No: 7232, 7204 & 7167 respectively) by following manufacturer's instructions. Briefly, colon cancer cells (HCT116. 10,000/well) were incubated with test compound (1 and 10 μM) or medium (control) for 4 hours at 37° C. in CO2 incubator. The incubation lasted 18 hours for p21 induction. After incubation, cell lysates were prepared in cell lysis buffer by sonication on ice. The lysates were collected after centrifugation and subjected to ELISA test procedure. 100 μL of each diluted cell lysate in dilution buffer (1:1) was added to appropriate capture antibody coated microwells and incubated overnight at 4° C. After washing, 100 μL of detection antibody was added for 1 hour at 37° C. After second washing, 100 μL of HRP-linked secondary antibody was added for 30 min at 37° C. Finally, after appropriate washing, 100 μL of TMB substrate was added for 10 min at 37° C. followed by 100 μL of stop solution. The absorbance of individual wells was read using a spectrophotometer at 450 nm (A450).

Assay [5] relates to Acetylated histone (H3). The experiment in a line: Histone (H3) acetylation, sandwich ELISA in HCT116 lysate. Format: cell-based. As to conditions: HCT116, 4 hours. The protocol:
as §2

For assay [6], the system named is HDAC (Mouse Liver Extract). The experiment in a line: HDAC inhibition assay using Boc-Lys(Ac)-AMC substrate. Format: biochemical. As to conditions: mouse liver enzyme. The procedure, abridged: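 Boc-Lys(Ac)-AMC substrate incubated with mouse liver extract as HDAC source, 5 min preincubation then 30 min at 37° C. Trypsin stop solution added (37° C., 15-30 min) to release AMC, read at ex 360/em 460 nm; buffer-only and substrate-only wells as blanks.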

Assay [7] has as its target recombinant HDAC1 enzyme (Homo sapiens (Human), UniProt Q13547). Kind of assay: HDAC1 inhibitory activity (isoform selectivity). Format: biochemical. As to conditions: read-out: HDAC1 inhibition (IC50). As to the method:
The assay was carried out, as previously described using recombinant HDAC1 enzyme (BIOMOL, USA) and following manufacturer's instructions.

Assay [8] deals with HCT 116 (colon) cells. The experiment in a line: Anti-cancer screen (MTT), HCT 116. The class given is cell-based. As to conditions: Homo sapiens, HCT-116, HCT116, 48 hours, MTT; for GI50: read-out: Cell growth inhibition HCT116 (Colon) GI50; for CC50: read-out: Cell growth inhibition HCT116 (Colon) LC50; for IC (TGI): read-out: Cell growth inhibition HCT116 (Colon) TGI. The procedure, abridged:
as §1

Assay [9] deals with p21. Kind of assay: p21 induction, sandwich ELISA in HCT116 lysate. Format: cell-based. As to conditions: HCT116, 18 hours. The protocol: as §2
Background: In an ELISA, binding on a coated surface is turned into a signal by an enzyme label.

The GI50 is the concentration giving 50% growth inhibition. For orientation: LC50 means the concentration lethal to half of the exposed cells or organisms. Usually IC50 stands for the point on the concentration scale where inhibition reaches its midpoint.

recombinant HDAC1 enzyme, sequence (Q13547 whole entry, canonical isoform): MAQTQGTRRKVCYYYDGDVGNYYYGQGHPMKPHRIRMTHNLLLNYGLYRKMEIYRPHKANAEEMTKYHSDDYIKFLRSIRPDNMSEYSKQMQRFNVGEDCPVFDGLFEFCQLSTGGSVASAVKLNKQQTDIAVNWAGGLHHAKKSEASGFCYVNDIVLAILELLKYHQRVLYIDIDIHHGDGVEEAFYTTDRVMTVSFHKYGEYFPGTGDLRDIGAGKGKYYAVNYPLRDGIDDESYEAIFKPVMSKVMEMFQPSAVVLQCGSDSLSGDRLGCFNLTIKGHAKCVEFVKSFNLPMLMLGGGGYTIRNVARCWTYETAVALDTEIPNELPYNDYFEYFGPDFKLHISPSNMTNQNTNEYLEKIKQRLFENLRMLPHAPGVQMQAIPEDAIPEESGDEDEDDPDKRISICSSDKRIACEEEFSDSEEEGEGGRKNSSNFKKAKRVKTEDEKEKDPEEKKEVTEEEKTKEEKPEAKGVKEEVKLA

Consider `COc1ccc(/C=C(/C(=O)NCc2ccc(C(=O)Nc3ccccc3N)cc2)c2ccccc2)cc1OC` [Compound 31, N-(2-Aminophenyl)-4-((3-(3,4-dimethoxyphenyl)-2-phenylacrylamido)methyl)benzamide], for which the GI50 is 1.6 µM in [1], 1.1 µM in assay [2], 3.8 µM in [3] and 0.02 µM in assay [8]. Besides, the LC50 in [2] was greater than 100 µM. Further, the results for the IC (TGI) in [2], in [3] and in assay [8] were greater than 100 µM, 50 µM and 40 µM, respectively. For the same molecule, the LC50 (concentration giving 50% net cell kill relative to the time-zero cell count) in assay [3] is greater than 100 µM. Moreover, the “Tubulin acetylation (Fold increase)” value in [4] (1 μM) came out at 1.2 Fold increase; in assay [4] (10 μM), 2.1 Fold increase. For the same molecule, the “H3 acetylation (Fold increase)” value in assay [5] (1 μM) turned out to be 0.9 Fold increase; in assay [5] (10 μM) it was 1.7 Fold increase. In addition, the “HDAC inhibition % (1 μM)” value in assay [6] is on record as 36.5%. For the same molecule, the “HDAC inhibition % (10 μM)” value in [6] is 65.5%. Further, the IC50 in [6] came to 7.9 µM; in assay [7], 0.054 µM. In addition, the CC50 in assay [8] was greater than 100 µM. Also, the “P21 induction (Fold increase)” value in assay [9] (1 μM) is 1.2 Fold increase; in assay [9] (10 μM) it was 2.8 Fold increase.
On to `COc1ccc(/C=C(/C(=O)NCc2ccc(C(=O)Nc3ccccc3N)cc2)c2ccccc2F)cc1OC` [Compound 28, N-(2-Aminophenyl)-4-((3-(3,4-dimethoxyphenyl)-2-(2-fluorophenyl)acrylamido)methyl)benzamide], for which the GI50 amounted to 2.2 µM in [1], 1 µM in [2], 5.5 µM in [3] and 0.1 µM in [8]. Besides, the median lethal concentration (LC50) in assay [2] was greater than 100 µM. Further, the IC (TGI) in assay [2], in [3] and in assay [8] was greater than 100 µM each time. In assay [3], the LC50 (concentration giving 50% net cell kill relative to the time-zero cell count) is greater than 100 µM. Besides, the “Tubulin acetylation (Fold increase)” value amounted to 1.9 Fold increase in [4] (1 μM) and 6.2 Fold increase in assay [4] (10 μM). For the same molecule, the entries for the “H3 acetylation (Fold increase)” value in assay [5] (1 μM) and in assay [5] (10 μM) were 1.1 Fold increase and 5.6 Fold increase, respectively. In addition, the “HDAC inhibition % (1 μM)” value in assay [6] stood at 41.3%. Also, the “HDAC inhibition % (10 μM)” value in assay [6] was 65.6%. In addition, the half-inhibitory concentration (IC50) came out at 9.5 µM in assay [6] and 0.036 µM in [7]. The CC50 in assay [8] was greater than 100 µM. For the same molecule, the “P21 induction (Fold increase)” value in assay [9] (1 μM) was 1.5 Fold increase; in assay [9] (10 μM) it was 2.5 Fold increase.

The record behind these values is US8476255B2, “Histone deacetylase inhibitors” (Orchid Chemicals & Pharmaceuticals Limited, priority 2007, dated 2013).
